According to the supplement of paper PMC8920030:

Legend:
Conditions in all cases: growth mode: biofilm, 24 h; exposure time: 24 h
colistin [1] = compound: T1, CCC(C)CCCC(=O)N[C@@H](CCN)C(=O)N[C@H](C(=O)N[C@@H](CCN)C(=O)N[C@H]1CCNC(=O)[C@H]([C@@H](C)O)NC(=O)[C@H](CCN)NC(=O)[C@H](CCN)NC(=O)[C@H](CC(C)C)NC(=O)[C@@H](CC(C)C)NC(=O)[C@H](CCN)NC1=O)[C@@H](C)O [colistin]; assay: minimum concentration eradicating biofilm below detection limit (MCK-E); higher = more biofilm tolerance
Description: (§1)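 Clinical P. aeruginosa isolates were grown as static biofilms for 24 h at 37 °C in LB in half-area 96-well plates, then exposed for 24 h to colistin at 1, 4, 16, 64, 256 or […]. Surviving CFU were counted by spotting serial dilutions. MCK is the lowest tested concentration giving the stated log reduction in CFU versus an untreated control; '>1024' means the reduction was not reached at the top dose, and 1 is the lowest dose tested (≤1).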

tobramycin [2] = compound: T2, NC[C@H]1O[C@H](O[C@H]2[C@H](O)[C@@H](O[C@H]3O[C@H](CO)[C@@H](O)[C@H](N)[C@H]3O)[C@H](N)C[C@@H]2N)[C@H](N)C[C@@H]1O [tobramycin]; assay: as above
Description: as §1, with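 “tobramycin” for “colistin”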

tobramycin [3] = compound: T2, tobramycin; assay: minimum concentration of killing, 1-log CFU reduction of biofilm (MCK90); higher = more biofilm tolerance
Description: as §1, with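 “tobramycin” for “colistin”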

colistin [4] = compound: T1, colistin; assay: as above
Description: as §1

colistin [5] = compound: T1, colistin; assay: minimum concentration of killing, 2-log CFU reduction of biofilm (MCK99); higher = more biofilm tolerance
Description: as §1

colistin [6] = compound: T1, colistin; assay: minimum concentration of killing, 4-log CFU reduction of biofilm (MCK99.99); higher = more biofilm tolerance
Description: as §1

tobramycin [7] = compound: T2, tobramycin; assay: as above
Description: as §1, with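 “tobramycin” for “colistin”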

tobramycin [8] = compound: T2, tobramycin; assay: minimum concentration of killing, 2-log CFU reduction of biofilm (MCK99); higher = more biofilm tolerance
Description: as §1, with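 “tobramycin” for “colistin”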

With “Pseudomonas aeruginosa clinical isolate F1864” the “minimum concentration eradicating biofilm below detection limit” value (colistin [1]) was 1020 µg/mL, the “minimum concentration eradicating biofilm below detection limit” value (tobramycin [2]) was > 1020 µg/mL and the “minimum concentration of killing” value (tobramycin [3]) was 1020 µg/mL. For the same test system, the “minimum concentration of killing” value (colistin [4]) was 256 µg/mL, the “minimum concentration of killing” value (colistin [5]) was 256 µg/mL and the “minimum concentration of killing” value (colistin [6]) was 256 µg/mL. The “minimum concentration of killing” value (tobramycin [7]) was 1020 µg/mL and the “minimum concentration of killing” value (tobramycin [8]) was 1020 µg/mL.
“Pseudomonas aeruginosa clinical isolate F1880” was tested, and the “minimum concentration eradicating biofilm below detection limit” value (colistin [1]) was 256 µg/mL, the “minimum concentration eradicating biofilm below detection limit” value (tobramycin [2]) was 1020 µg/mL and the “minimum concentration of killing” value (tobramycin [3]) was 64 µg/mL. The “minimum concentration of killing” value (colistin [4]) was 256 µg/mL, the “minimum concentration of killing” value (colistin [5]) was 256 µg/mL and the “minimum concentration of killing” value (colistin [6]) was 256 µg/mL. For the same test system, the “minimum concentration of killing” value (tobramycin [7]) was 1020 µg/mL and the “minimum concentration of killing” value (tobramycin [8]) was 1020 µg/mL.
For “Pseudomonas aeruginosa clinical isolate F1957”, the “minimum concentration eradicating biofilm below detection limit” value (colistin [1]) was 1020 µg/mL, the “minimum concentration eradicating biofilm below detection limit” value (tobramycin [2]) was 1020 µg/mL and the “minimum concentration of killing” value (tobramycin [3]) was 256 µg/mL. The “minimum concentration of killing” value (colistin [4]) was 256 µg/mL, the “minimum concentration of killing” value (colistin [5]) was 256 µg/mL and the “minimum concentration of killing” value (colistin [6]) was 256 µg/mL. The “minimum concentration of killing” value (tobramycin [7]) was 1020 µg/mL and the “minimum concentration of killing” value (tobramycin [8]) was 1020 µg/mL.
In the case of “Pseudomonas aeruginosa clinical isolate F1959”, the “minimum concentration eradicating biofilm below detection limit” value (colistin [1]) is reported as 64 µg/mL, the “minimum concentration eradicating biofilm below detection limit” value (tobramycin [2]) is reported as > 1020 µg/mL and the “minimum concentration of killing” value (tobramycin [3]) is reported as 16 µg/mL. The “minimum concentration of killing” value (colistin [4]) was 64 µg/mL, the “minimum concentration of killing” value (colistin [5]) was 64 µg/mL and the “minimum concentration of killing” value (colistin [6]) was 64 µg/mL. The “minimum concentration of killing” value (tobramycin [7]) was 1020 µg/mL and the “minimum concentration of killing” value (tobramycin [8]) was 64 µg/mL.
For “Pseudomonas aeruginosa clinical isolate F1968”, the “minimum concentration eradicating biofilm below detection limit” value (colistin [1]) was 256 µg/mL, the “minimum concentration eradicating biofilm below detection limit” value (tobramycin [2]) was 1020 µg/mL and the “minimum concentration of killing” value (tobramycin [3]) was 4 µg/mL. The “minimum concentration of killing” value (colistin [4]) was 64 µg/mL, the “minimum concentration of killing” value (colistin [5]) was 256 µg/mL and the “minimum concentration of killing” value (colistin [6]) was 256 µg/mL. The “minimum concentration of killing” value (tobramycin [7]) was 256 µg/mL and the “minimum concentration of killing” value (tobramycin [8]) was 64 µg/mL.
“Pseudomonas aeruginosa clinical isolate F2003” was tested, and the “minimum concentration eradicating biofilm below detection limit” value (colistin [1]) was 1020 µg/mL, the “minimum concentration eradicating biofilm below detection limit” value (tobramycin [2]) was 1020 µg/mL and the “minimum concentration of killing” value (tobramycin [3]) was ≤ 1 µg/mL. For the same test system, the “minimum concentration of killing” value (colistin [4]) was 64 µg/mL, the “minimum concentration of killing” value (colistin [5]) was 256 µg/mL and the “minimum concentration of killing” value (colistin [6]) was 1020 µg/mL. For the same test system, the “minimum concentration of killing” value (tobramycin [7]) was 256 µg/mL and the “minimum concentration of killing” value (tobramycin [8]) was 4 µg/mL.
For “Pseudomonas aeruginosa clinical isolate F2005”, the “minimum concentration eradicating biofilm below detection limit” value (colistin [1]) was 256 µg/mL, the “minimum concentration eradicating biofilm below detection limit” value (tobramycin [2]) was 1020 µg/mL and the “minimum concentration of killing” value (tobramycin [3]) was ≤ 1 µg/mL. The “minimum concentration of killing” value (colistin [4]) was 16 µg/mL, the “minimum concentration of killing” value (colistin [5]) was 256 µg/mL and the “minimum concentration of killing” value (colistin [6]) was 256 µg/mL. The “minimum concentration of killing” value (tobramycin [7]) was 16 µg/mL and the “minimum concentration of killing” value (tobramycin [8]) was 16 µg/mL.
“Pseudomonas aeruginosa clinical isolate F2006” was tested, and the “minimum concentration eradicating biofilm below detection limit” value (colistin [1]) was 256 µg/mL, the “minimum concentration eradicating biofilm below detection limit” value (tobramycin [2]) was 64 µg/mL and the “minimum concentration of killing” value (tobramycin [3]) was ≤ 1 µg/mL. For the same test system, the “minimum concentration of killing” value (colistin [4]) was 64 µg/mL, the “minimum concentration of killing” value (colistin [5]) was 64 µg/mL and the “minimum concentration of killing” value (colistin [6]) was 256 µg/mL. For the same test system, the “minimum concentration of killing” value (tobramycin [7]) was 64 µg/mL and the “minimum concentration of killing” value (tobramycin [8]) was ≤ 1 µg/mL.
“Pseudomonas aeruginosa clinical isolate F2010” was tested, and the “minimum concentration eradicating biofilm below detection limit” value (colistin [1]) was 1020 µg/mL, the “minimum concentration eradicating biofilm below detection limit” value (tobramycin [2]) was 1020 µg/mL and the “minimum concentration of killing” value (tobramycin [3]) was 64 µg/mL. For the same test system, the “minimum concentration of killing” value (colistin [4]) was 64 µg/mL, the “minimum concentration of killing” value (colistin [5]) was 256 µg/mL and the “minimum concentration of killing” value (colistin [6]) was 256 µg/mL. The “minimum concentration of killing” value (tobramycin [7]) was 256 µg/mL and the “minimum concentration of killing” value (tobramycin [8]) was 64 µg/mL.
“Pseudomonas aeruginosa clinical isolate F2017” was tested, and the “minimum concentration eradicating biofilm below detection limit” value (colistin [1]) was > 1020 µg/mL, the “minimum concentration eradicating biofilm below detection limit” value (tobramycin [2]) was > 1020 µg/mL and the “minimum concentration of killing” value (tobramycin [3]) was 16 µg/mL. For the same test system, the “minimum concentration of killing” value (colistin [4]) was 4 µg/mL, the “minimum concentration of killing” value (colistin [5]) was 64 µg/mL and the “minimum concentration of killing” value (colistin [6]) was 256 µg/mL. The “minimum concentration of killing” value (tobramycin [7]) was 256 µg/mL and the “minimum concentration of killing” value (tobramycin [8]) was 256 µg/mL.
For “Pseudomonas aeruginosa clinical isolate F2020”, the “minimum concentration eradicating biofilm below detection limit” value (colistin [1]) was 256 µg/mL, the “minimum concentration eradicating biofilm below detection limit” value (tobramycin [2]) was 1020 µg/mL and the “minimum concentration of killing” value (tobramycin [3]) was 16 µg/mL. The “minimum concentration of killing” value (colistin [4]) was 16 µg/mL, the “minimum concentration of killing” value (colistin [5]) was 64 µg/mL and the “minimum concentration of killing” value (colistin [6]) was 64 µg/mL. The “minimum concentration of killing” value (tobramycin [7]) was 256 µg/mL and the “minimum concentration of killing” value (tobramycin [8]) was 16 µg/mL.
